Results on 75 sequences are retold here after the OligoGym collection.

This data set has as its target SNHG14. To be noted: ASO.
Setting [1] is: Mouse Primary Neuronal Cell, 0.005 µM.

After the bases stand the sugars from the 5' end (letter, count) and the backbone: PS all phosphorothioate, else s phosphorothioate and o phosphodiester by linkage. Methylation of C is not given here. l = locked nucleic acid (LNA); d = 2'-deoxy (DNA)

On to CCTACATCTCATACTT (sugars l3 d10 l3, PS), for which the target mRNA inhibition is, setting by setting: (Human Neuronal Cell, 0.2 µM) -11%; (Human Neuronal Cell, 1 µM) 3%; (Human Neuronal Cell, 5 µM) 13%; under setting [1], 93.4%.

On to “TCTGTATACACCATCCC (sugars l2 d13 l2, PS)”, for which, for the setting “Human Neuronal Cell, 7.5 µM”, the target mRNA inhibition is 62%.

With “TTTTAACCAGAGTGGCA (sugars l3 d11 l3, PS)”, the target mRNA inhibition (Human Neuronal Cell, 7.5 µM) was found to be 56%.

For “TACACTTAATTATACTTCCA (sugars lddldllddddddddlddll, PS)”, the target mRNA inhibition (Human Neuronal Cell, 7.5 µM) was 56%.

“CACTGATTTCCTTAAAC (sugars l4 d11 l2, PS)”: the target mRNA inhibition (Human Neuronal Cell, 0.2 µM) was determined as 40% and the target mRNA inhibition (Human Neuronal Cell, 1 µM) stood at 43%.

Turning to ATATAAGCTTACCTCA (sugars l4 d10 l2, PS), the target mRNA inhibition reads like this: (Human Neuronal Cell, 0.2 µM) 56%; (Human Neuronal Cell, 1 µM) 68%.

As to “GCATTAGGCACATTACAT (sugars l3 d12 l3, PS)”, the target mRNA inhibition reads like this: (Human Neuronal Cell, 0.2 µM) -8%; (Human Neuronal Cell, 1 µM) 2%; (Human Neuronal Cell, 5 µM) 15%.

Take “AGCAACATTATTAACCACC (sugars l2 d1 l2 d12 l2, PS)”: where the note is “Human Neuronal Cell, 7.5 µM”, the target mRNA inhibition turned out to be 63%.

Consider “TTGATTCAATTCCCTTA (sugars l2 d10 l1 d1 l3, PS)”, for which the target mRNA inhibition (Human Neuronal Cell, 7.5 µM) was 68%.

As to “CTGTTTATACCCTTTCCA (sugars l1 d12 l1 d2 l2, PS)”, where the note is “Human Neuronal Cell, 7.5 µM”, the target mRNA inhibition came out at 58%.

As for ACTGATTTCCTTAAAC (sugars l4 d10 l2, PS), the target mRNA inhibition (Human Neuronal Cell, 0.2 µM) worked out at 24% and the target mRNA inhibition (Human Neuronal Cell, 1 µM) is 52%.

As to “CTCAAAGATCATTCTCA (sugars ldldldddddddlldll, PS)”, the target mRNA inhibition (Human Neuronal Cell, 7.5 µM) amounted to 65%.

In the case of “ATTGATTCAATTCCCTT (sugars l1 d1 l2 d9 l4, PS)”, the target mRNA inhibition (Human Neuronal Cell, 7.5 µM) is 67%.

Regarding “CAACATTATTAACCACCTT (sugars l3 d1 l1 d11 l3, PS)”, for the setting “Human Neuronal Cell, 7.5 µM”, the target mRNA inhibition amounted to 61%.

For “CTGTATACACCATCCCA (sugars ldldlddddddddddll, PS)”, the target mRNA inhibition (Human Neuronal Cell, 7.5 µM) is 61%.

As to “GTTCTACTATACTTTCCT (sugars l2 d1 l1 d12 l2, PS)”, the target mRNA inhibition (Human Neuronal Cell, 7.5 µM) is 60%.

With “ATTGATTCAATTCCCTT (sugars l3 d10 l1 d1 l2, PS)”, under “Human Neuronal Cell, 7.5 µM”, the target mRNA inhibition worked out at 70%.

For the sequence “TTACCTACATCTCATAC (sugars l2 d13 l2, PS)”, the target mRNA inhibition by setting is: (Human Neuronal Cell, 0.2 µM) 1%; (Human Neuronal Cell, 1 µM) -8%; (Human Neuronal Cell, 5 µM) 19%; under setting [1], 79%.

As to “TCTTTCCATTTATTTCCATT (sugars l2 d14 l1 d1 l2, PS)”, the target mRNA inhibition (Human Neuronal Cell, 7.5 µM) is 46%.

Turning to “TATACCTTTCTTTAACCCTT (sugars lddldlddddddddddldll, PS)”, the target mRNA inhibition (Human Neuronal Cell, 7.5 µM) amounted to 62%.

“TCTTTCCATTTATTTCCAT (sugars l2 d3 l1 d11 l2, PS)”: the target mRNA inhibition (Human Neuronal Cell, 7.5 µM) came out at 54%.

With “TTCTACTATACTTTCCTCT (sugars lddddlddddddddlddll, PS)”, the target mRNA inhibition (Human Neuronal Cell, 7.5 µM) was 57%.

Consider GCTCCCAAACAACTAA (sugars l2 d12 l2, PS), for which the target mRNA inhibition runs as follows: (Human Neuronal Cell, 0.2 µM) 36%; (Human Neuronal Cell, 1 µM) 72%.

“TGTTTATACCCTTTCCAA (sugars l1 d1 l2 d12 l2, PS)”: the target mRNA inhibition (Human Neuronal Cell, 7.5 µM) was found to be 63%.

Consider “AAAATTATTTATACACCATC (sugars lldddllddddddllldlll, PS)”, for which the target mRNA inhibition (Human Neuronal Cell, 7.5 µM) is 63%.

In the case of “TTTTTTCTTACTATCTTCAA (sugars ldddddldddddddllddll, PS)”, the target mRNA inhibition (Human Neuronal Cell, 7.5 µM) turned out to be 43%.

As for ACCTGTAATACTTCTT (sugars l4 d10 l2, PS), the target mRNA inhibition is, setting by setting: (Human Neuronal Cell, 0.2 µM) 48%; (Human Neuronal Cell, 1 µM) 46%.

Consider “TATCTTTCCATTTATTTCC (sugars l1 d2 l1 d13 l2, PS)”, for which the target mRNA inhibition (Human Neuronal Cell, 7.5 µM) worked out at 41%.

Take ATCATCAGTTACATCA (sugars l4 d10 l2, PS): the target mRNA inhibition by setting is: (Human Neuronal Cell, 0.2 µM) 62%; (Human Neuronal Cell, 1 µM) 63%.

Take TCACCTAATAGCACCA (sugars l2 d10 l4, PS): the target mRNA inhibition runs as follows: (Human Neuronal Cell, 0.2 µM) 60%; (Human Neuronal Cell, 1 µM) 69%.

With “TACTCTGCAATACACC (sugars l1 d3 l1 d7 l4, PS)”, the target mRNA inhibition (Human Neuronal Cell, 7.5 µM) amounted to 63%.

Take “CTGTTTATACCCTTTCCA (sugars l1 d4 l1 d10 l2, PS)”: the target mRNA inhibition (Human Neuronal Cell, 7.5 µM) was 58%.

For the sequence “CTGTATACACCATCCCA (sugars l1 d3 l1 d10 l2, PS)”, where the note is “Human Neuronal Cell, 7.5 µM”, the target mRNA inhibition is 65%.

As to ATCCTGTTAATACCAT (sugars l2 d10 l4, PS), the target mRNA inhibition by setting is: (Human Neuronal Cell, 0.2 µM) 45%; (Human Neuronal Cell, 1 µM) 39%.

For “AGCAACATTATTAACCACC (sugars lddddlddddddlldddll, PS)”, the target mRNA inhibition (Human Neuronal Cell, 7.5 µM) came out at 45%.

“TCTGTATACACCATCCCA (sugars lddddlddddddddldll, PS)”: where the note is “Human Neuronal Cell, 7.5 µM”, the target mRNA inhibition came to 61%.

With “ACCAATTATACTTACAA (sugars l3 d11 l3, PS)”, the target mRNA inhibition (Human Neuronal Cell, 0.2 µM) was 21% and the target mRNA inhibition (Human Neuronal Cell, 1 µM) came out at 52%.

For the sequence “TCTTTCCATTTATTTCCA (sugars l4 d12 l2, PS)”, the target mRNA inhibition reads like this: (Human Neuronal Cell, 0.2 µM) 53%; (Human Neuronal Cell, 1 µM) 60%.

Regarding “CTTTCCATTTATTTCCAT (sugars l3 d12 l3, PS)”, the target mRNA inhibition is 43% (Human Neuronal Cell, 0.2 µM) and 51% (Human Neuronal Cell, 1 µM).

“CTCATTTACATTATTATT (sugars l4 d12 l2, PS)”: the target mRNA inhibition (Human Neuronal Cell, 0.2 µM) came to 34% and the target mRNA inhibition (Human Neuronal Cell, 1 µM) worked out at 44%.

For “TTTACACTTAATTATACTTC (sugars lldllddddddddldlllll, PS)”, under “Human Neuronal Cell, 7.5 µM”, the target mRNA inhibition was 29%.

On to “ACATGTCCCTTTATATT (sugars l4 d11 l2, PS)”, for which the target mRNA inhibition (Human Neuronal Cell, 0.2 µM) is -15%; the target mRNA inhibition (Human Neuronal Cell, 1 µM) is -4%; the target mRNA inhibition (Human Neuronal Cell, 5 µM) amounted to 9%; the target mRNA inhibition under setting [1] was found to be 83.7%.

Consider ATAAGCTTACCTCATA (sugars l2 d10 l4, PS), for which the target mRNA inhibition (Human Neuronal Cell, 0.2 µM) came to 62% and the target mRNA inhibition (Human Neuronal Cell, 1 µM) came to 68%.

In the case of “ATCATTTCATATTACTA (sugars l3 d11 l3, PS)”, the target mRNA inhibition runs as follows: (Human Neuronal Cell, 0.2 µM) 43%; (Human Neuronal Cell, 1 µM) 56%.

As to ACCACTGATTTCCTTA (sugars l2 d10 l4, PS), the target mRNA inhibition is 50% (Human Neuronal Cell, 0.2 µM) and 63% (Human Neuronal Cell, 1 µM).

For “TCTTTCCATTTATTTCCATT (sugars l2 d3 l1 d12 l2, PS)”, the target mRNA inhibition (Human Neuronal Cell, 7.5 µM) was 47%.

As to CTCTAATCCTATTCCA (sugars l3 d10 l3, PS), the target mRNA inhibition (Human Neuronal Cell, 0.2 µM) came to 50% and the target mRNA inhibition (Human Neuronal Cell, 1 µM) was 58%.

Take “TTTGACATTCCATCTCC (sugars l2 d12 l3, PS)”: the target mRNA inhibition reads like this: (Human Neuronal Cell, 0.2 µM) 38%; (Human Neuronal Cell, 1 µM) 55%.

“TATTGATTCAATTCCCT (sugars l1 d12 l4, PS)”: the target mRNA inhibition (Human Neuronal Cell, 7.5 µM) amounted to 57%.

As for “ATCTTTCCATTTATTTCC (sugars l3 d12 l3, PS)”, the target mRNA inhibition reads like this: (Human Neuronal Cell, 0.2 µM) 52%; (Human Neuronal Cell, 1 µM) 56%.

Regarding “TTCTGTATACACCATCC (sugars l1 d12 l1 d1 l2, PS)”, for the setting “Human Neuronal Cell, 7.5 µM”, the target mRNA inhibition was found to be 62%.

“GATCATTCTCAACAATTA (sugars ldllldddddddldldll, PS)”: the target mRNA inhibition (Human Neuronal Cell, 7.5 µM) stood at 35%.

On to “TTATAGCCATTCTATCT (sugars lddllddddddldddll, PS)”, for which, where the note is “Human Neuronal Cell, 7.5 µM”, the target mRNA inhibition was 50%.

Consider “ACTTTACTGCCATAATC (sugars l3 d11 l3, PS)”, for which the target mRNA inhibition by setting is: (Human Neuronal Cell, 0.2 µM) 40%; (Human Neuronal Cell, 1 µM) 33%.

As for “TTCAGCTTTTAACCAGAGT (sugars l2 d14 l3, PS)”, under “Human Neuronal Cell, 7.5 µM”, the target mRNA inhibition was found to be 73%.

Turning to “ATTTTTTTCTTACTATCTTC (sugars ldlllddddddddlddddll, PS)”, the target mRNA inhibition (Human Neuronal Cell, 7.5 µM) worked out at 56%.

In the case of “ACTGTTTATACCCTTTC (sugars l1 d2 l1 d9 l4, PS)”, the target mRNA inhibition (Human Neuronal Cell, 7.5 µM) was 45%.

As for “TTATTTCCATTTATTTTCA (sugars ldlldddddddddlddlll, PS)”, where the note is “Human Neuronal Cell, 7.5 µM”, the target mRNA inhibition was 68%.

As for “TTTTTTTCTTACTATCTTCA (sugars l1 d14 l1 d2 l2, PS)”, the target mRNA inhibition (Human Neuronal Cell, 7.5 µM) was determined as 17%.

“GTTTATACCCTTTCCAAT (sugars l1 d13 l4, PS)”: the target mRNA inhibition (Human Neuronal Cell, 7.5 µM) was 59%.

With “TAGTCCTTCCTTTAACC (sugars l2 d13 l2, PS)”, the target mRNA inhibition by setting is: (Human Neuronal Cell, 0.2 µM) 20%; (Human Neuronal Cell, 1 µM) 16%.

Turning to “TTTTATACCTTTCTTTAACC (sugars ldddlddddddddlddddll, PS)”, under “Human Neuronal Cell, 7.5 µM”, the target mRNA inhibition was -9%.

For TGTATATAACTATTCC (sugars l4 d10 l2, PS), the target mRNA inhibition is, setting by setting: (Human Neuronal Cell, 0.2 µM) 21%; (Human Neuronal Cell, 1 µM) 20%.

On to GAAACTATTACTCCTA (sugars l2 d10 l4, PS), for which the target mRNA inhibition was found to be 44% (Human Neuronal Cell, 0.2 µM) and 55% (Human Neuronal Cell, 1 µM).

With “GTTCTACTATACTTTCCTC (sugars lddddldddddddddldll, PS)”, the target mRNA inhibition (Human Neuronal Cell, 7.5 µM) amounted to 55%.

In the case of “ATATTGATTCAATTCCC (sugars l1 d2 l1 d7 l6, PS)”, where the note is “Human Neuronal Cell, 7.5 µM”, the target mRNA inhibition was 51%.

In the case of “ACTGTTTATACCCTTTCC (sugars l1 d11 l1 d3 l2, PS)”, the target mRNA inhibition (Human Neuronal Cell, 7.5 µM) worked out at 56%.

Regarding ACCCATTTCTAACATT (sugars l4 d10 l2, PS), the target mRNA inhibition is, setting by setting: (Human Neuronal Cell, 0.2 µM) 29%; (Human Neuronal Cell, 1 µM) 40%.

With AGCTCCATATTTAAAT (sugars l4 d10 l2, PS), the target mRNA inhibition (Human Neuronal Cell, 0.2 µM) worked out at 10% and the target mRNA inhibition (Human Neuronal Cell, 1 µM) was -9%.

As for AACATGTAATTTCCAT (sugars l2 d10 l4, PS), the target mRNA inhibition reads like this: (Human Neuronal Cell, 0.2 µM) 31%; (Human Neuronal Cell, 1 µM) 27%.

Take ATACACAGCACATATT (sugars l2 d10 l4, PS): the target mRNA inhibition was 29% (Human Neuronal Cell, 0.2 µM) and 43% (Human Neuronal Cell, 1 µM).

As for “TTTATTTCCATTTATTTTCA (sugars lldldlddddddddldldll, PS)”, the target mRNA inhibition (Human Neuronal Cell, 7.5 µM) was determined as 63%.

In the case of “GTTTATACCCTTTCCAAT (sugars l1 d2 l1 d12 l2, PS)”, the target mRNA inhibition (Human Neuronal Cell, 7.5 µM) is 61%.

As for “CAAAGATCATTCTCAACA (sugars lllldldddddddlddll, PS)”, for the setting “Human Neuronal Cell, 7.5 µM”, the target mRNA inhibition worked out at 63%.

On to “TTATTTCCATTTATTTTCA (sugars llddlddddddddldldll, PS)”, for which the target mRNA inhibition (Human Neuronal Cell, 7.5 µM) is 66%.
